This note sets out measurements from ChEMBL document CHEMBL5528001, “Synthetic product-based approach toward potential antileishmanial drug development” (Eur J Med Chem, 2024).

A value given as a limit tells only on which side of the number the result lay.

For orientation: IC50 means the concentration that gives 50% inhibition. By CC50 is commonly meant the concentration at which the toxic effect on the cells reaches its halfway point. Broadly, the EC50 is the concentration that produces a half-maximal response.

The subject of data set [1] is Leishmania donovani. Put plainly: Antileishmanial activity against Leishmania donovani infected in BALB/c mouse model assessed as reduction in parasite growth at 75 mg/kg, po administered for 5 consecutive days. The class given is functional. More on the design: scale not given: the % may be the effect or the level left.
For data set [2], the system named is Leishmania donovani. Nature of the data set: Antileishmanial activity against Leishmania donovani MHOM/ET/67/HU3 intracellular amastigotes infected in human THP-1 cells assessed as inhibition of parasite growth incubated for 72 hrs by resazurin based colorimetric assay. The note with it: MHOM/ET/67/HU3, THP-1, 72 h. Format: functional, organism-based.
Data set [3] relates to Leishmania donovani. Nature of the data set: Antileishmanial activity against Leishmania donovani S1 promastigotes assessed as parasite growth inhibition incubated for 72 hrs by Alamar blue assay. The note with it: S1, 72 h. Format: functional, organism-based. Background: Alamar Blue is a resazurin reagent that responds to reducing activity.
Data set [4] has as its system Leishmania infantum. Nature of the data set: Antileishmanial activity against Leishmania infantum MCAN/ES/ 89/IPZ229/1/89 axenic amastigotes assessed as reduction in parasite viability treated for 48 hrs by PI staining based flow cytometry. Format: functional, organism-based. The note with it: MCAN/ES/89/IPZ229/1/89, 48 h.
For data set [5], the system named is Leishmania amazonensis. Nature of the data set: Antileishmanial activity against Leishmania amazonensis WHOM/00LTB001 promastigotes assessed as reduction in parasite growth incubated for 72 hrs by resazurin staining based analysis. The class given is functional, organism-based. The note with it: WHOM/00LTB001, 72 h.
Data set [6] is described as follows: Cytotoxicity against mouse J774.A1 cells assessed as inhibition of cell growth measured for 72 hrs by MTT assay. Format: toxicity, cell-based. (In general: Tetrazolium dyes change colour on reduction, which living cells bring about.)
A short description of data set [7]: Cytotoxicity against HEK293 cells assessed as reduction in cell growth incubated for 3 days by resazurin dye based analysis. The class given is toxicity. The note with it: human, time 3 day.
Data set [8] in a line: Cytotoxicity against human THP-1 cells assessed as reduction in cell growth incubated for 3 days by resazurin dye based analysis. The class given is toxicity. The note with it: time 3 day.
The test system of data set [9] is Leishmania major. Nature of the data set: Antileishmanial activity against Leishmania major MHOM/IL/80/Friendlin assessed as reduction in parasite growth incubated for 48 hrs by MTT assay. Format: functional, organism-based.
Another data set relates to NCI-H1299. Nature of the data set: Antiproliferative activity against human NCI-H1299 cells assessed as reduction in cell viability incubated for 48 hrs by MTT assay. The class given is functional, cell-based. The note with it: NCI-H1299, 48 h.
A further data set relates to HT-29. Nature of the data set: Antiproliferative activity against human HT-29 cells assessed as reduction in cell viability incubated for 48 hrs by MTT assay. The note with it: HT-29, 48 h. Format: functional, cell-based.
Data set [10] is described as follows: Antileishmanial activity against Leishmania infantum BCN-150 promastigotes assessed as reduction in parasite growth incubated for 48 hrs by MTT assay. Format: functional.
Data set [11] relates to Leishmania major. Put plainly: Antileishmanial activity against Leishmania major IR-173 promastigotes assessed as inhibition of parasite growth measured for 48 hrs by resazurin staining based analysis. The class given is functional, organism-based. The note with it: IR-173, 48 h.
A short description of data set [12]: Cytotoxicity against primary peritoneal mouse macrophages cells assessed as reduction in cell growth measured after 24 hrs by colorimetric assay. Format: toxicity, cell-based, Macrophage.
Data set [13] relates to Leishmania infantum. Nature of the data set: Antileishmanial activity against Leishmania infantum amastigotes infected in human THP-1 cells assessed as reduction in parasite growth incubated for 72 hrs by high content imaging analysis. The class given is functional, organism-based. The note with it: THP-1, 72 h.
The subject of data set [14] is Leishmania infantum. Nature of the data set: Antileishmanial activity against Leishmania infantum MHOM/BR/70/BH46 promastigotes assessed as reduction in parasite growth incubated for 72 hrs by resazurin staining based analysis. Format: functional, organism-based. The note with it: MHOM/BR/70/BH46, 72 h.
For data set [15], the system named is Leishmania donovani. Nature of the data set: Antileishmanial activity against Leishmania donovani promastigotes assessed as inhibition of cell growth measured after 3 days by resazurin/alamar blue-staining based analysis. Format: functional, organism-based. The note with it: 72 h.
A short description of data set [16]: Selectivity index, ratio of CC50 for cytotoxicity against mouse BMDM cells to IC50 for antileishmanial activity against Leishmania amazonensis intracellular amastigotes. Format: toxicity, cell-based. The note with it: read-out: Ratio CC50/IC50.
Data set [17] deals with Leishmania amazonensis. Put plainly: Antileishmanial activity against Leishmania amazonensis intracellular amastigotes assessed as parasite growth inhibition measured for 72 hrs by resazurin/alamar blue fluorometric assay. The class given is functional, organism-based.
Data set [18] concerns Leishmania infantum. Put plainly: Antileishmanial activity against Leishmania infantum MHOM/MA/67/ITMAP263 axenic amastigotes assessed as reduction in parasite viability treated for 24 hrs by PI staining based flow cytometry. Format: functional, organism-based. The note with it: MHOM/MA/67/ITMAP263, 24 h.
Data set [19] can be described thus: Cytotoxicity against human THP-1 cells assessed as inhibition of cell growth measured after 72 hrs by MTT assay. The class given is toxicity, cell-based.
Data set [20] relates to Leishmania donovani. Nature of the data set: Antileishmanial activity against Leishmania donovani 9515 amastigotes assessed as inhibition of parasite growth incubated for 48 hrs by resazurin dye based assay. The class given is functional, organism-based. The note with it: Leishmania donovani, 9515, 48 h.
Data set [21] has as its system Leishmania donovani. Nature of the data set: Antileishmanial activity against Leishmania donovani 9515 promastigotes assessed as inhibition of parasite growth incubated for 48 hrs by resazurin dye based assay. Format: functional, organism-based. The note with it: Leishmania donovani, 9515, 48 h.
Data set [22] concerns Leishmania donovani. Put plainly: Antileishmanial activity against Leishmania donovani promastigotes MHOM/SD/62/1S assessed as inhibition of cell growth measured after 48 hrs by resazurin dye based assay. Format: functional, organism-based.
Data set [23] can be described thus: Cytotoxicity against African green monkey Vero cells assessed as reduction in cell viability incubated for 72 hrs by MTT assay. Format: toxicity, cell-based, Chlorocebus sabaeus.
In data set [24] the test system is Leishmania donovani. Put plainly: Antileishmanial activity against Leishmania donovani amastigotes MHOM/SD/62/1S assessed as inhibition of cell growth measured after 48 hrs by resazurin dye based assay. Format: functional, organism-based.
Data set [25] has as its system Leishmania amazonensis. Nature of the data set: Antileishmanial activity against Leishmania amazonensis MHOM/BR/71973/M2269 promastigotes assessed as reduction in parasite viability measured for 48 hrs PI staining based flow cytometry analysis. Format: functional, organism-based. The note with it: MHOM/BR/71973, 48 h. In general terms: A flow cytometer gives signals particle by particle.

For data set [26], the system named is Leishmania infantum. Put plainly: Antileishmanial activity against Leishmania infantum MHOM/BR/1972/BH46 promastigotes assessed as reduction in parasite viability measured for 48 hrs by PI staining based flow cytometry analysis. The class given is functional, organism-based. The note with it: MHOM/BR/1972/BH46, 48 h.
Data set [27] has as its system Leishmania infantum. Nature of the data set: Antileishmanial activity against Leishmania infantum MHOM/BR/1972/BH46 amastigotes assessed as reduction in cell viability measured for 48 hrs by PI staining based flow cytometry analysis. The class given is functional, organism-based. The note with it: MHOM/BR/1972/BH46, 48 h.
Data set [28] has as its system Leishmania infantum. Put plainly: Antileishmanial activity against Leishmania infantum MON-1 promastigotes assessed as reduction in parasite viability measured after 48 hrs by MTT assay. Format: functional, organism-based. The note with it: MON-1, 48 h.
For data set [29], the system named is HepG2. Nature of the data set: Antiproliferative activity against human HepG2 cells assessed as reduction in cell growth measured for 72 hrs by MTT assay. The note with it: HepG2, 72 h. The class given is functional, cell-based.
The test system of data set [30] is HepG2. Put plainly: Cytotoxicity against human HepG2 cells assessed as reduction in cell growth measured for 48 hrs by MTT assay. The class given is functional.

In the case of `CC(C)Oc1cc(OCCCCCCCCn2ccnc2)ccc1NC(=N)c1ccccn1`, in the data set on Leishmania donovani [1], the Activity is on record as 33%. Besides, the IC50 in the data set on Leishmania donovani [2] was 0.53 µM.
As to `COc1cccc2c1O/C(=C(/C)c1ncc([N+](=O)[O-])[nH]1)C2=O`, the IC50 in the data set on Leishmania donovani [3] was determined as 0.016 µM.
`CC1(C)Oc2c(c(=O)[nH]c3ccccc23)[C@H]2[C@@H](Cl)[C@](C)(O)CC[C@@H]21`: in the data set with Leishmania infantum [4], the IC50 was 8.1 µM.
Regarding `CCc1ccc(NC(=S)N/N=C/c2c[nH]c3c(C)cc(Br)cc23)cc1`, the IC50 in the data set on Leishmania amazonensis [5] came out at 12.3 µM. Moreover, the CC50 at 72 h in [6] came to 53.2 µM.
Turning to `COc1cc(/C=C2/Oc3cc(O)ccc3C2=O)cc(OC)c1`, the CC50 at 72 h in [7] was above 200 µM; in data set [8], 96.9 µM.
Consider `N#C[Se]/C=C/c1ccccc1`, for which the IC50 with Leishmania major [9] came to 3.3 µM; with NCI-H1299, 11.9 µM; in the data set on HT-29 it was 11.9 µM; in data set [10], 3.7 µM.
With `CCCCCCCCCCn1cc(CNCCNc2ccnc3cc(Cl)ccc23)nn1`, the IC50 in the data set on Leishmania major [11] stood at 0.08 µM. Besides, the CC50 at 24 h in data set [12] came out at 18.2 µM.
As for `C/C(=N\Nc1nc(-c2ccc(Br)cc2)cs1)c1ccccn1`, in the data set with Leishmania infantum [13], the IC50 worked out at 0.43 µM.
With `Cc1cc(Br)cc2c(/C=N/NC(=S)Nc3ccccc3)c[nH]c12`, the IC50 in the data set with Leishmania infantum [14] was determined as 5.6 µM.
`O=c1c2ccccc2nc(/C=C/c2ccc([N+](=O)[O-])cc2)n1-c1ccccc1`: the half-inhibitory concentration (IC50) in the data set with Leishmania donovani [15] was 0.02 µM.
`CCCCCCCCNCc1ccc2c(c1)C(=O)CC(C)(C)O2`: in data set [16], the selectivity ratio was determined as 1.6. The IC50 with Leishmania amazonensis [17] is 24.6 µM; in the data set with Leishmania infantum [18] it was 25.3 µM.
For the compound `O=[N+]([O-])c1ccc(/C=N\NS(=O)(=O)c2ccc(-c3ccccc3)cc2)o1`, the IC50 at 72 h was 50.4 µM in [19] and 16.4 µM in data set [23]. In addition, the IC50 in the data set on Leishmania donovani [20] was found to be 6.29 µM; with Leishmania donovani [21], 1.53 µM; in the data set on Leishmania donovani [22] it was 1.45 µM; with Leishmania donovani [24], 2.94 µM.
Take `C=CCc1cc(OC)c2oc(=O)c(C(=O)c3ccccc3)cc2c1`: the half-inhibitory concentration (IC50) in the data set with Leishmania amazonensis [25] came out at 82 µM; in the data set with Leishmania infantum [26], 26.7 µM; in the data set with Leishmania infantum [27], 18 µM.
As for `CCOC(=O)c1cc2c([nH]c3ccccc32)c(-c2cc3ccccc3n3nnnc23)n1`, the EC50 in the data set with Leishmania infantum [28] worked out at 3.36 µM; in the data set on HepG2 [29] it was 10.2 µM. In addition, the CC50 with HepG2 [30] came out at 27.9 µM.
